As a reminder, the IC50 is the concentration at which inhibition is half-maximal.

In experiment [1] the target is T1, TRPC5 channel (Homo sapiens, UniProt Q9UL62).
T1 construct: expressed in transfected cells; host or cells: HEK293/TREx (Invitrogen), tetracycline-induced
T1 sequence (Q9UL62 1-973): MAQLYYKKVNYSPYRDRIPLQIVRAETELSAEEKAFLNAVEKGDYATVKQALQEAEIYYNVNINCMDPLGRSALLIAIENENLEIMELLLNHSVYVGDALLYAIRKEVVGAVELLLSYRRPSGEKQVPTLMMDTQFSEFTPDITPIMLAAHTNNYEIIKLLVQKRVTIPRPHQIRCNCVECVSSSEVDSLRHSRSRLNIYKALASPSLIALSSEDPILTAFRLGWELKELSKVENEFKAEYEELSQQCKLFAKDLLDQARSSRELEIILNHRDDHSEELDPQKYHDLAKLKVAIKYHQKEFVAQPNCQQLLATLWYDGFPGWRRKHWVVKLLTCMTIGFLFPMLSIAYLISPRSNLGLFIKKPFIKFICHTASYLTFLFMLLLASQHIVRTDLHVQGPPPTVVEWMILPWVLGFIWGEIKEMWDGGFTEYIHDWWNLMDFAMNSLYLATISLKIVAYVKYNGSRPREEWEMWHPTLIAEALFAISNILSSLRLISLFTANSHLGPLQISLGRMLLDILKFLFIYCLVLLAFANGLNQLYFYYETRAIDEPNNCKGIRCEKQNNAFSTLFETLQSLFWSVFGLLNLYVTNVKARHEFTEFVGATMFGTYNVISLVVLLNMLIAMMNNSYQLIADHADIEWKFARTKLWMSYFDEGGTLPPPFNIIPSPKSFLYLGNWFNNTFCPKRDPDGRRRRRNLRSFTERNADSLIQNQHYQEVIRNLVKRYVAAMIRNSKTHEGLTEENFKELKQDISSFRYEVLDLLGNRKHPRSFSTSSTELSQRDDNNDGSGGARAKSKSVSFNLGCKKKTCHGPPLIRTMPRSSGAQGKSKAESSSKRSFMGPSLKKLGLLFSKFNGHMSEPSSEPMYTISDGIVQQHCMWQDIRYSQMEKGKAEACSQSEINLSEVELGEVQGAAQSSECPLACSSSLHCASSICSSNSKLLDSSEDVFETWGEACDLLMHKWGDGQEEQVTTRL
The experiment can be described thus: High throughput screening assay: Fluo4 cell-based fluorescence assay of intracellular Ca2+ rise. Particulars: HEK293/TREx cells inducibly expressing TRPC5, 0.027-20 μM in triplicate, NF = no IC50 curve could be fit. The source says: The assay depended on detection of the rise in intracellular Ca2+ concentration ([Ca2+]i) following channel activation in cells inducibly expressing the TRPC5 channel. Ca2+ rise was quantified with the use of fluorescent Ca2+ indicators that were loaded into cells and thereafter indicated the [Ca2+]i Ca2+ influx followed activation of the TRPC5 channel. Compounds inhibiting the [Ca2+]i rise were considered hits for further investigation.
The commercially available HEK293/TREx line (Invitrogen) was stably transfected with a TRPC5 construct and screened by conventional calcium imaging to find clones with TRPC5 expression following stimulation with 1 μg/ml tetracycline. These cells were maintained in the growth medium recommended by the manufacturer supplemented with 100 μg/ml hygromycin to promote retention of the TRPC5 construct. After growing to near confluency, cells were plated at a density of ˜35,000 cells/well in 384 well CellBind plates (Corning) in the presence of 1 μg/ml tetracycline, and allowed to grow for 20-30 hrs. A nearly confluent monolayer resulted. Cells were then loaded with Ca2+ dye: Fura-2/AM or Fluo4/AM was added to the wells to a final concentration of 4 μM or 0.5 μM, respectively, and incubated for 80 min or 60 min, respectively, at room temperature. Supernatant was then removed from the cells by inverting plates with a sharp flick, and 25 μl Hank's Balanced Salt Solution (HBSS; 0.185 g/l D-glucose, 0.9767 g/l MgS04 (anhydrous), 0.4 g/l KCl, 0.06 g/l KH2PO4 (anhydrous), 0.35 g/l NaHCO3, 8.0 g/l NaCl, and 0.04788 g/l Na2HPO4 (anhydrous); pH 7.4) was then added to each well. Following ˜0.5 hour for recovery from loading, cells were assayed using the Hamamatsu FDSS 6000 system, which permitted illumination alternately at 340 nm and 380 nm for Fura-2 experiments, or at 485 nm for Fluo4 experiments. Frames were acquired at a rate of 0.2 Hz. During the assay, the plates were continuously vortexed, with pipette mixing of wells following addition of each reagent. For the screening assay, 26 μl of a diluted compound stock (at 50 μM) was added to each well for 2 minutes following the collection of a short (4 frame) baseline. 13 μl 62 mM high-Ca2+Ringer solution (4.17 ml of normal ringer (with 2 mM Ca2+) plus 5.83 ml of isotonic calcium ringer (105 mM Ca2+; in this ringer all sodium has been replaced with calcium)) was then added to each well, achieving a final concentration of 14 mM Ca2+ and 10 μM test compound. Data was collected for ˜3 minutes following addition of high Ca2+Ringer, where the fluorescent intensity (for Fluo4) and the F340/F380 ratio (for Fura-2) were proportional to the [Ca2+]i Negative controls consisted of HEK293/TREx TRPC5 cells exposed to high Ca2+ solution, but no compound. Positive control conditions consisted of addition of 2-APB, a promiscuous blocker of TRPC5 and other channels, to columns 23 and 24 of the plates, to a final concentration of 200 μM. These controls defined a screening window, and “hits” were defined as those compounds inhibiting the fluorescence response by at least 40%. IC50 values were determined for compounds defined as “hits.” The Fluo4 cell-based fluorescence assay was used to determine the intracellular Ca2+ concentration in the presence of varying drug concentration. Final concentrations of compounds tested were 20 μM, 6.667 μM, 2.222 μM, 0.741 μM, 0.247 μM, 0.082 μM, and 0.027 μM. Compounds were tested in triplicate at all concentrations. Standard software was used to fit IC50 curves. A value of NF was assigned when no IC50 curves could not be fit.
Additionally or alternatively, efficacy can be represented as % inhibition in the presence (of a given concentration of compound) versus the absence of compound or in comparison to a control compound. For example, efficacy can be represented as % inhibition of ion flux in the presence versus the absence of compound.

The target in experiment [2] is T1, TRPC5 channel. The experiment can be described thus: Patch clamp experiments (whole-cell, LaCl3-activated TRPC5 current). The format is cell-based. The following applies: whole-cell patch clamp in TRPC5-expressing HEK293 TREx cells; block of inward and outward currents in continued presence of LaCl3; IC50 estimated. The source says: Patch clamp experiments permit the detection of currents through the TRPC5 channel in the cell line described above. In normal whole-cell patch clamp recordings, a glass electrode is brought into contact with a single cell and a high-resistance (gigaohm) seal is established with the cell membrane. The membrane is then ruptured to achieve the whole-cell configuration, permitting control of the voltage of the cell membrane and measurement of currents flowing across the membrane using the amplifier attached to the electrode and resulting in the replacement of cytoplasm with the pipette solution. A perfusion system permits control of the extracellular solution, including the addition of blockers and activators of the current. The current can be activated by including 1.4 μM free Ca^2+ in the pipette (intracellular) solution, and 80 μM LaCl3 in the extracellular solution.
TRPC5 cells were induced 20-48 hours, removed from growth plates, and replated at low density (to attain good single-cell physical separation) on glass coverslips for measurement. In some cases, cells were grown in low density overnight on glass coverslips. Patch clamp recordings were made in the whole-cell mode with a holding potential of −40 mV. Every 5 seconds, a voltage ramp was applied from −120 to +100 mV, 400 ms in duration. Currents elicited were quantified at −80 mV and +80 mV. The internal solution consisted of 140 mM cesium aspartate, 10 mM HEDTA, 2 mM CaCl2, 2.27 mM MgCl2 and 10 mM HEPES, pH 7.2, with 1,400 nM calculated free Ca^2+. The external solution consisted of 150 mM NaCl, 4.5 mM KCl, 1 mM MgCl2, 2 mM CaCl2, 10 mM HEPES, 10 mM glucose, 1 mM EGTA, pH 7.4. Upon addition of LaCl3, TRPC5 current was induced only in TRPC5-expressing cells and not in parental HEK293 TREx cells. Removal of the LaCl3 stimulus causes most of the current to go away. Potential blockers were tested for ability to block both inward and outward currents in the continued presence of LaCl3.
IC50 of a compound of Formula (I) was estimated by testing the compound at 5 μM and 500 nM. […] IC50 for a compound of Formula (I) between 500 nM and 5 μM was similarly estimated.

Consider `Cn1c(=O)n(CCCO)c(=O)c2c(Cc3ccc(Cl)cc3)c(Oc3cccc(OC(F)(F)F)c3)cnc21` [Compound 21, 5-(4-chlorobenzyl)-3-(3-hydroxypropyl)-1-methyl-6-(3-(trifluoromethoxy)phenoxy)pyrido[2,3-d]pyrimidine-2,4(1H,3H)-dione], for which the figures for the half-maximal inhibitory concentration (IC50) at TRPC5 channel [1] and on TRPC5 channel [2] were 269 nM and below 1 nM, respectively.
For `CC(C)CCc1c(-c2ccccc2C(C)C)cnc2c1c(=O)n(CCCO)c(=O)n2C` [Compound 23, 3-(3-hydroxypropyl)-5-isopentyl-6-(2-isopropylphenyl)-1-methylpyrido[2,3-d]pyrimidine-2,4(1H,3H)-dione] the same measures were 6490 nM and 12.2 nM.
Regarding `Cc1cncc(Oc2cnc3c(c2Cc2ccc(Cl)cc2)c(=O)n(CCCO)c(=O)n3C)c1` [Compound 27, 5-(4-chlorobenzyl)-3-(3-hydroxypropyl)-1-methyl-6-(5-methylpyridin-3-yloxy)pyrido[2,3-d]pyrimidine-2,4(1H,3H)-dione], the IC50 on TRPC5 channel [2] was 29 nM.
Regarding `CC(C)Oc1cnc2c(c1Cc1ccccc1)c(=O)n(CCCO)c(=O)n2C` [Compound 29, 5-benzyl-3-(3-hydroxypropyl)-6-isopropoxy-1-methylpyrido[2,3-d]pyrimidine-2,4(1H,3H)-dione], the half-maximal inhibitory concentration (IC50) was 27 nM at TRPC5 channel [1] and 4.5 nM on TRPC5 channel [2].
The corresponding values for `Cn1c(=O)n(CCCO)c(=O)c2c(Cc3ccc(F)cc3)c(Oc3ccc(Cl)cc3)cnc21` [Compound 30, 6-(4-chlorophenoxy)-5-(4-fluorobenzyl)-3-(3-hydroxypropyl)-1-methylpyrido[2,3-d]pyrimidine-2,4(1H,3H)-dione] are 357 nM and below 1 nM.
For `CC(C)Oc1cnc2c(c1Cc1ccc(F)cc1)c(=O)n(CCCO)c(=O)n2C` [Compound 31, 5-(4-fluorobenzyl)-3-(3-hydroxypropyl)-6-isopropoxy-1-methylpyrido[2,3-d]pyrimidine-2,4(1H,3H)-dione] the same measures were 27 nM and 1.47 nM.
Turning to `Cn1c(=O)n(CCCO)c(=O)c2c(Cc3ccccc3)c(-c3cccc(F)c3)cnc21` [Compound 34, 5-benzyl-6-(3-fluorophenyl)-3-(3-hydroxypropyl)-1-methylpyrido[2,3-d]pyrimidine-2,4(1H,3H)-dione], the IC50 at TRPC5 channel [1] is 154 nM; on TRPC5 channel [2], 8.3 nM.
For `Cn1c(=O)n(CCCO)c(=O)c2c(Cc3ccc(Cl)cn3)c(-c3cccc(OC(F)(F)F)c3)cnc21` [Compound 35, 5-((5-chloropyridin-2-yl)methyl)-3-(3-hydroxypropyl)-1-methyl-6-(3-(trifluoromethoxy)phenyl)pyrido[2,3-d]pyrimidine-2,4(1H,3H)-dione] the same measures were 14 nM and 3.4 nM.
The corresponding values for `CC(C)Oc1cnc2c(c1Cc1ccc(Cl)cc1)c(=O)n(CCCO)c(=O)n2C` [Compound 36, 5-(4-chlorobenzyl)-3-(3-hydroxypropyl)-6-isopropoxy-1-methylpyrido[2,3-d]pyrimidine-2,4(1H,3H)-dione] are 27 nM and 1.2 nM.
For the compound `Cn1c(=O)n(CCCO)c(=O)c2c(C(O)c3ccc(Cl)cc3)c(-c3cccc(OC(F)(F)F)c3)cnc21` (stereo not shown) [Compound 39, 5-((4-chlorophenyl)(hydroxyl)methyl)-3-(3-hydroxypropyl)-1-methyl-6-(3-(trifluoromethoxy)phenyl)pyrido[2,3-d]pyrimidine-2,4(1H,3H)-dione], the IC50 at TRPC5 channel [2] was 51.7 nM.
The same measure, in the same setting: for `Cn1c(=O)n(CCCO)c(=O)c2c(Cc3ccc(Cl)cc3)c(-c3cccc(OC(F)(F)F)c3)cnc21` [Compound 40, 5-(4-chlorobenzyl)-3-(3-hydroxypropyl)-1-methyl-6-(3-(trifluoromethoxy)phenyl)pyrido[2,3-d]pyrimidine-2,4(1H,3H)-dione] the value was 2.9 nM.
